# From US10703757B2, “Compounds and methods for CDK8 modulation and indications therefor” (Plexxikon Inc., priority 2016, dated 2020)
# System: CDK8 (phosphorylation of STAT1 at serine 727 in A549 cells)
# Test: Cell based Phospho-STAT1 assay (IFNγ-stimulated A549 cells, AlphaLISA)
# Settings: Homo sapiens, A549, A549 cells, phospho-STAT1 after IFNγ stimulation
# Outline: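 A549 cells given serial compound dilutions for 1 h at 37 °C, then stimulated with IFNγ at 10 ng/mL final for 30 min. Lysate STAT1 Ser727 phosphorylation measured by AlphaLISA; % inhibition vs stimulated/unstimulated DMSO controls, IC50 by nonlinear regression.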
row,Structure (SMILES),IC50
1,"CC(=O)N1CC=C(c2cccc3ncc(-c4ccc(-c5cnn(C)c5)cc4)n23)CC1 [Compound P-0436, 1-(4-(3-(4-(1-methyl-1H-pyrazol-4-yl)phenyl)imidazo[1,2-a]pyridin-5-yl)-3,6-dihydropyridin-1(2H)-yl)ethan-1-one]",1000 to 10000 nM
2,"Cn1cc(C#Cc2cnc3cccc(N4CCC(CC(N)=O)CC4)n23)cn1 [Compound P-0294, 2-(1-(3-((1-methyl-1H-pyrazol-4-yl)ethynyl)imidazo[1,2-a]pyridin-5-yl)piperidin-4-yl)acetamide]",1000 to 10000 nM
3,"Cn1cc(-c2ccc(-c3cnc4cccc(NCCCO)n34)cc2)cn1 [Compound P-0390, 3-((3-(4-(1-methyl-1H-pyrazol-4-yl)phenyl)imidazo[1,2-a]pyridin-5-yl)amino)propan-1-ol]",100 to 1000 nM
4,"FC(F)n1cc(-c2ccc(-c3cccn4ncc(-c5ccc(-c6cnn(C(F)F)c6)cc5)c34)cc2)cn1 [Compound P-0371, 3,4-bis(4-(1-(difluoromethyl)-1H-pyrazol-4-yl)phenyl)pyrazolo[1,5-a]pyridine]",1000 to 10000 nM
5,"Cn1cc(C#Cc2cnc3cccc(N4CCC(C#N)CC4)n23)cn1 [Compound P-0409, 1-(3-((1-methyl-1H-pyrazol-4-yl)ethynyl)imidazo[1,2-a]pyridin-5-yl)piperidine-4-carbonitrile]",100 to 1000 nM
6,"Cn1cc(-c2ccc(-c3cnn4cccc(-c5cnn(C(=O)OC(C)(C)C)c5)c34)cc2)cn1 [Compound P-0431, tert-butyl 4-(3-(4-(1-methyl-1H-pyrazol-4-yl)phenyl)pyrazolo[1,5-a]pyridin-4-yl)-1H-pyrazole-1-carboxylate]",1000 to 10000 nM
7,"COC(=O)N1CCC(Oc2cccc3ncc(-c4ccc(-c5cnn(C(F)F)c5)cc4)n23)CC1 [Compound P-0291, methyl 4-((3-(4-(1-(difluoromethyl)-1H-pyrazol-4-yl)phenyl)imidazo[1,2-a]pyridin-5-yl)oxy)piperidine-1-carboxylate]",100 to 1000 nM
8,"CC(C)(C)OC(=O)N1CCC(Oc2cccc3ncc(-c4ccc(-c5cnn(C(F)F)c5)cc4)n23)CC1 [Compound P-0306, tert-butyl 4-((3-(4-(1-(difluoromethyl)-1H-pyrazol-4-yl)phenyl)imidazo[1,2-a]pyridin-5-yl)oxy)piperidine-1-carboxylate]",1000 to 10000 nM
9,"CCOC(=O)C1CC=C(c2cccn3ncc(-c4ccc(-c5cnn(C)c5)cc4)c23)CC1 (centres unmarked) [Compound P-0446, ethyl 4-(3-(4-(1-methyl-1H-pyrazol-4-yl)phenyl)pyrazolo[1,5-a]pyridin-4-yl)cyclohex-3-ene-1-carboxylate]",100 to 1000 nM
10,"Cn1cc(-c2ccc(-c3cnn4cccc(C#CC5(O)COC5)c34)cc2)cn1 [Compound P-0368, 3-((3-(4-(1-methyl-1H-pyrazol-4-yl)phenyl)pyrazolo[1,5-a]pyridin-4-yl)ethynyl)oxetan-3-ol]",0.1 to 100 nM
11,"Cn1cc(-c2ccc(-c3cnc4cccc(NCC5CCOCC5)n34)cc2)cn1 [Compound P-0391, 3-(4-(1-methyl-1H-pyrazol-4-yl)phenyl)-N-((tetrahydro-2H-pyran-4-yl)methyl)imidazo[1,2-a]pyridin-5-amine]",100 to 1000 nM
12,"Cn1cc(-c2ccc(C3=C4C(C5CCC(C#N)CC5)=CC=CN4NC3)cc2)cn1 (centres unmarked) [Compound P-0302, 4-(3-(4-(1-methyl-1H-pyrazol-4-yl)phenyl)-1,2-dihydropyrazolo[1,5-a]pyridin-4-yl)cyclohexane-1-carbonitrile]",1000 to 10000 nM
13,"CC(C)(O)C#Cc1cccn2ncc(-c3ccc(-c4cnn(C(F)F)c4)cc3)c12 [Compound P-0370, 4-(3-(4-(1-(difluoromethyl)-1H-pyrazol-4-yl)phenyl)pyrazolo[1,5-a]pyridin-4-yl)-2-methylbut-3-yn-2-ol]",0.1 to 100 nM
14,"CNC(=O)C1CCN(c2cccc3ncc(-c4ccc(-c5cnn(C)c5)cc4)n23)CC1 [Compound P-0380, N-methyl-1-(3-(4-(1-methyl-1H-pyrazol-4-yl)phenyl)imidazo[1,2-a]pyridin-5-yl)piperidine-4-carboxamide]",1000 to 10000 nM
15,"CC(=O)NC(C)(C)C#Cc1cccn2ncc(-c3ccc(-c4cnn(C)c4)cc3)c12 [Compound P-0307, N-(2-methyl-4-(3-(4-(1-methyl-1H-pyrazol-4-yl)phenyl)pyrazolo[1,5-a]pyridin-4-yl)but-3-yn-2-yl)acetamide]",100 to 1000 nM
16,"Cn1cc(-c2ccc(-c3cnn4cccc(C#CC(O)c5ccccc5)c34)cc2)cn1 (centres unmarked) [Compound P-0426, 3-[3-[4-(1-methylpyrazol-4-yl)phenyl]pyrazolo[1,5-a]pyridin-4-yl]-1-phenyl-prop-2-yn-1-ol]",0.1 to 100 nM
17,"Cn1cc(C#Cc2cnn3cccc(C4=CCC(C#N)CC4)c23)cn1 (centres unmarked) [Compound P-0433, 4-[3-[2-(1-methylpyrazol-4-yl)ethynyl]pyrazolo[1,5-a]pyridin-4-yl]cyclohex-3-ene-1-carbonitrile]",0.1 to 100 nM
18,"Cn1cc(-c2ccc(-c3cnn4cccc(N5CCC(C#N)(c6ccccn6)CC5)c34)cc2)cn1 [Compound P-0365, 1-(3-(4-(1-methyl-1H-pyrazol-4-yl)phenyl)pyrazolo[1,5-a]pyridin-4-yl)-4-(pyridin-2-yl)piperidine-4-carbonitrile]",0.1 to 100 nM
19,"CN1CCN(c2cccc3ncc(-c4ccc(-c5cnn(C)c5)cc4)n23)CC1 [Compound P-0394, 3-(4-(1-methyl-1H-pyrazol-4-yl)phenyl)-5-(4-methylpiperazin-1-yl)imidazo[1,2-a]pyridine]",100 to 1000 nM
20,"Cn1ncc2cc(-c3cnn4cccc(N5CCC(C#N)CC5)c34)ccc21 [Compound P-0405, 1-(3-(1-methyl-1H-indazol-5-yl)pyrazolo[1,5-a]pyridin-4-yl)piperidine-4-carbonitrile]",0.1 to 100 nM
21,"Cn1cc(-c2ccc(-c3cnc4cccc(N5CCC(C(O)c6cccnc6)CC5)n34)cc2)cn1 (centres unmarked) [Compound P-0384, (1-(3-(4-(1-methyl-1H-pyrazol-4-yl)phenyl)imidazo[1,2-a]pyridin-5-yl)piperidin-4-yl)(pyridin-3-yl)methanol]",1000 to 10000 nM
22,"Cn1cc(-c2ccc(-c3cnc4cccc(N5CCC(C(N)=O)CC5)n34)cc2)cn1 [Compound P-0400, 1-(3-(4-(1-methyl-1H-pyrazol-4-yl)phenyl)imidazo[1,2-a]pyridin-5-yl)piperidine-4-carboxamide]",100 to 1000 nM
23,"Cn1cc(-c2ccc(-c3cnn4cccc(C5=CCSCC5)c34)cc2)cn1 [Compound P-0301, 4-(3,6-dihydro-2H-thiopyran-4-yl)-3-(4-(1-methyl-1H-pyrazol-4-yl)phenyl)pyrazolo[1,5-a]pyridine]",100 to 1000 nM
24,"Cn1cc(-c2ccc(-c3cnc4[nH]cc(Cl)c4c3N3CCC(C#N)CC3)cc2)cn1 [Compound P-0360, 1-(3-chloro-5-(4-(1-methyl-1H-pyrazol-4-yl)phenyl)-1H-pyrrolo[2,3-b]pyridin-4-yl)piperidine-4-carbonitrile]",0.1 to 100 nM
25,"Cn1ncc2cc(-c3cnc4[nH]ccc4c3C#CC(C)(C)O)ccc21 [Compound P-0343, 2-methyl-4-(5-(1-methyl-1H-indazol-5-yl)-1H-pyrrolo[2,3-b]pyridin-4-yl)but-3-yn-2-ol]",100 to 1000 nM
26,"Cc1nn(C)c2ccc(-c3cnc4[nH]ccc4c3C3=CCC(C#N)CC3)cc12 (centres unmarked) [Compound P-0342, 4-(5-(1,3-dimethyl-1H-indazol-5-yl)-1H-pyrrolo[2,3-b]pyridin-4-yl)cyclohex-3-ene-1-carbonitrile]",0.1 to 100 nM
